Assays:
Format in all cases: in vivo
[1] = test system: velvetleaf (Abutilon theophrasti); test: Test B postemergence
Summary of the method: (§1)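 Greenhouse test: chemicals are formulated in a surfactant-containing non-phytotoxic solvent and applied either preemergence to planted seeds or postemergence to plants 2 to 18 cm tall. Response is rated visually versus controls after 13 to 15 days, 0 meaning no effect and 100 complete control.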

[2] = test system: barnyardgrass (Echinochloa crus-galli); test: Test B postemergence
Summary of the method: as §1

[3] = test system: morning glory (Ipomoea hederacea); test: Test B postemergence
Summary of the method: as §1

wild oat (Avena fatua) = test: Test B postemergence
Summary of the method: as §1

[4] = test system: Surinam grass (Brachiaria decumbens); test: Test B postemergence
Summary of the method: as §1

[5] = test system: pigweed (Amaranthus retroflexus); test: Test B postemergence
Summary of the method: as §1

[6] = test system: cocklebur (Xanthium strumarium); test: Test B postemergence
Summary of the method: as §1

corn (Zea mays) [7] = test: Test B postemergence
Summary of the method: as §1

[8] = test system: wheat (Triticum aestivum); test: Test B postemergence
Summary of the method: as §1

[9] = test system: crabgrass (Digitaria sanguinalis); test: Test B postemergence; details: 13 to 15 days
Summary of the method: as §1

[10] = test system: giant foxtail (Setaria faberii); test: Test B postemergence
Summary of the method: as §1

Sunflower [11] = test: Test C preemergence; details: Rate 500 g/ha, visual evaluation after 12 to 14 days
[12] = test system: velvetleaf (Abutilon theophrasti); test: Test C preemergence; details: for Plant response rating (0 to 100), Velvetleaf: Rate 500 g/ha, visual evaluation after 12 to 14 days
Summary of the method: (§2)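 Visual 0–100 rating vs controls (0 = no effect, 100 = complete control) at 12–14 d, greenhouse. Compounds in non-phytotoxic solvent + surfactant; pre: sprayed after seeding; post: 1–4-leaf plants, 2–18 cm.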

[13] = test system: goosegrass (Eleusine indica); test: Test C preemergence; details: for Plant response rating (0 to 100), Goosegrass: visual evaluation after 12 to 14 days
Summary of the method: as §2

[14] = test system: johnsongrass (Sorghum halepense); test: Test C preemergence; details: for Plant response rating (0 to 100), Johnsongrass: visual evaluation after 12 to 14 days
Summary of the method: as §2

[15] = test system: yellow nutsedge (Cyperus esculentus); test: Test C preemergence; details: for Plant response rating (0 to 100), Nutsedge: Rate 500 g/ha, visual evaluation after 12 to 14 days
Summary of the method: as §2

Nightshade = test: Test C preemergence
[16] = test system: morningglory (Ipomoea hederacea); test: Test C preemergence
Summary of the method: as §2

corn (Zea mays) [17] = test: Test C preemergence; details: for Plant response rating (0 to 100), Corn: visual evaluation after 12 to 14 days
Summary of the method: as §2

[18] = test system: lambsquarters (Chenopodium album); test: Test C preemergence; details: for Plant response rating (0 to 100), Lambsquarters: Rate 500 g/ha, visual evaluation after 12 to 14 days
Summary of the method: as §2

[19] = test system: common ragweed (Ambrosia elatior); test: Test C preemergence; details: for Plant response rating (0 to 100), Ragweed, Common: Rate 500 g/ha, visual evaluation after 12 to 14 days
Summary of the method: as §2

Sunflower [20] = test: Test C preemergence; details: Rate 125 g/ha; scale 0 to 100, 0 no effect, 100 complete control
[21] = Rate 125 g/ha, scale 0 (no effect) to 100 (complete control), 13 to 15 days
[22] = Rate 500 g/ha, scale 0 to 100, 0 is no effect, 100 is complete control, 13 to 15 days
[23] = preemergence, Rate 125 g/ha, scale 0 to 100, 0 no effect, 100 complete control
[24] = preemergence, Rate 250 g/ha, scale 0 to 100, 0 no effect, 100 complete control
[25] = Rate 62 g/ha, scale 0 to 100, 0 no effect, 100 complete control
[26] = Rate 125 g/ha, scale 0 to 100, 0 no effect, 100 complete control
[27] = Rate 250 g/ha, scale 0 to 100, 0 no effect, 100 complete control
[28] = preemergence, Rate 62 g/ha, scale 0 to 100

CCOC(=O)c1cccc(N2CCC(n3ccc(C(C)(C)C)n3)C2=O)c1 (stereo not shown) [Compound 72]
Plant response rating, Velvetleaf [1, 21]: 30
Plant response rating, Velvetleaf [1, 22]: 60
Plant response rating, Barnyardgrass [2, 21]: 30
Plant response rating, Barnyardgrass [2, 22]: 70
Plant response rating, Morningglory [3, 21]: 20
Plant response rating, Morningglory [3, 22]: 50
Plant response rating, Wild Oat (wild oat (Avena fatua); [21]): 0
Plant response rating, Wild Oat (wild oat (Avena fatua); [22]): 0
Plant response rating, Surinam grass [4, 21]: 0
Plant response rating, Surinam grass [4, 22]: 0
Plant response rating, Pigweed [5, 21]: 20
Plant response rating, Pigweed [5, 22]: 60
Plant response rating, Cocklebur [6, 21]: 80
Plant response rating, Cocklebur [6, 22]: 90
Plant response rating, Corn (corn (Zea mays) [7]; [21]): 0
Plant response rating, Corn (corn (Zea mays) [7]; [22]): 0
Plant response rating, Wheat [8, 21]: 0
Plant response rating, Wheat [8, 22]: 0
Plant response rating, Crabgrass ([9]; Rate 125 g/ha, scale 0 (no effect) to 100 (complete control)): 0
Plant response rating, Crabgrass ([9]; Rate 500 g/ha, scale 0 to 100, 0 is no effect, 100 is complete control): 30
Plant response rating, Foxtail, Giant [10, 21]: 0
Plant response rating, Foxtail, Giant [10, 22]: 50
Plant response rating (0 to 100), Sunflower (Sunflower [11]): 60
Plant response rating (0 to 100), Velvetleaf ([12]; preemergence): 40
Plant response rating, Velvetleaf [12, 23]: 0
Plant response rating, Velvetleaf [12, 24]: 10
Plant response rating, Goosegrass [13, 25]: 20
Plant response rating (0 to 100), Goosegrass ([13]; preemergence, Rate 250 g/ha): 80
Plant response rating (0 to 100), Goosegrass ([13]; preemergence, Rate 500 g/ha): 90
Plant response rating, Goosegrass [13, 23]: 70
Plant response rating, Johnsongrass [14, 25]: 0
Plant response rating (0 to 100), Johnsongrass ([14]; preemergence, Rate 250 g/ha): 0
Plant response rating (0 to 100), Johnsongrass ([14]; preemergence, Rate 500 g/ha): 40
Plant response rating, Johnsongrass [14, 23]: 0
Plant response rating, Nutsedge [15, 25]: 0
Plant response rating (0 to 100), Nutsedge ([15]; preemergence): 20
Plant response rating, Nutsedge [15, 23]: 0
Plant response rating, Nutsedge [15, 24]: 20
Plant response rating, Nightshade (Nightshade; Rate 62 g/ha; scale 0 to 100, 0 no effect, 100 complete control): 30
Plant response rating, Nightshade (Nightshade; [26]): 10
Plant response rating, Nightshade (Nightshade; [27]): 30
Plant response rating, Morningglory [16, 25]: 0
Plant response rating (0 to 100), Morningglory ([16]; preemergence, Rate 500 g/ha, visual evaluation after 12 to 14 days): 100
Plant response rating, Morningglory [16, 23]: 30
Plant response rating, Morningglory [16, 24]: 10
Plant response rating, Corn (corn (Zea mays) [17]; [25]): 0
Plant response rating (0 to 100), Corn (corn (Zea mays) [17]; preemergence, Rate 250 g/ha): 0
Plant response rating (0 to 100), Corn (corn (Zea mays) [17]; preemergence, Rate 500 g/ha): 0
Plant response rating, Corn (corn (Zea mays) [17]; [23]): 0
Plant response rating, Lambsquarters [18, 25]: 0
Plant response rating (0 to 100), Lambsquarters ([18]; preemergence): 100
Plant response rating, Lambsquarters [18, 23]: 100
Plant response rating, Lambsquarters [18, 24]: 100
Plant response rating (0 to 100), Ragweed, Common ([19]; preemergence): 90
Plant response rating, Ragweed, Common [19, 23]: 0
Plant response rating, Ragweed, Common [19, 24]: 70

Cc1ccc(N2CCC(n3ccc(C(C)(C)C)n3)C2=O)cc1I (stereo not shown) [Compound 122]
Plant response rating, Velvetleaf [1, 26]: 0
Plant response rating, Barnyardgrass [2, 26]: 0
Plant response rating, Barnyardgrass [2, 22]: 0
Plant response rating, Morningglory [3, 26]: 20
Plant response rating, Wild Oat (wild oat (Avena fatua); [26]): 0
Plant response rating, Surinam grass [4, 26]: 0
Plant response rating, Surinam grass [4, 22]: 0
Plant response rating, Pigweed [5, 26]: 30
Plant response rating, Cocklebur [6, 26]: 30
Plant response rating, Cocklebur [6, 22]: 90
Plant response rating, Corn (corn (Zea mays) [7]; [26]): 0
Plant response rating, Corn (corn (Zea mays) [7]; [22]): 0
Plant response rating, Wheat [8, 26]: 0
Plant response rating, Foxtail, Giant [10, 26]: 0
Plant response rating (0 to 100), Sunflower (Sunflower [11]): 30
Plant response rating, Velvetleaf [12, 26]: 10
Plant response rating, Velvetleaf [12, 28]: 0
Plant response rating (0 to 100), Velvetleaf ([12]; preemergence): 20
Plant response rating, Velvetleaf [12, 24]: 20
Plant response rating, Goosegrass [13, 26]: 100
Plant response rating, Goosegrass [13, 28]: 90
Plant response rating (0 to 100), Goosegrass ([13]; preemergence, Rate 500 g/ha): 100
Plant response rating, Goosegrass [13, 24]: 100
Plant response rating, Johnsongrass [14, 26]: 0
Plant response rating, Johnsongrass [14, 28]: 0
Plant response rating (0 to 100), Johnsongrass ([14]; preemergence, Rate 500 g/ha): 20
Plant response rating, Johnsongrass [14, 24]: 0
Plant response rating, Nutsedge [15, 26]: 0
Plant response rating, Nutsedge [15, 28]: 0
Plant response rating (0 to 100), Nutsedge ([15]; preemergence): 0
Plant response rating, Nutsedge [15, 24]: 0
Plant response rating, Nightshade (Nightshade; Rate 62 g/ha, scale 0 to 100): 0
Plant response rating, Nightshade (Nightshade; Rate 125 g/ha; scale 0 to 100, 0 no effect, 100 complete control): 0
Plant response rating, Nightshade (Nightshade; [27]): 30
Plant response rating, Morningglory [16, 26]: 0
Plant response rating, Morningglory [16, 28]: 0
Plant response rating, Morningglory [16, 24]: 100
Plant response rating, Corn (corn (Zea mays) [17]; [26]): 0
Plant response rating, Corn (corn (Zea mays) [17]; [28]): 0
Plant response rating (0 to 100), Corn (corn (Zea mays) [17]; preemergence, Rate 500 g/ha): 0
Plant response rating, Corn (corn (Zea mays) [17]; [24]): 0
Plant response rating, Lambsquarters [18, 26]: 100
Plant response rating, Lambsquarters [18, 28]: 100
Plant response rating (0 to 100), Lambsquarters ([18]; preemergence): 100
Plant response rating, Lambsquarters [18, 24]: 100
Plant response rating, Ragweed, Common [19, 26]: 0
Plant response rating, Ragweed, Common [19, 28]: 0
Plant response rating (0 to 100), Ragweed, Common ([19]; preemergence): 100
Plant response rating, Ragweed, Common [19, 24]: 20
Plant response rating, Sunflower (Sunflower [20]): 0

Source: patent US7138361B2, “Herbicidal heterocycles” (E. I. du Pont de Nemours and Company, priority 2000, dated 2006)
